The results in this text go back to patent US9814727B2, “Piperazine phenothiazine derivatives for treating spasticity” (UNIVERSITE D'AIX-MARSEILLE, priority 2014, dated 2017).

The test system of assay [1] is reciprocal inhibition of lumbar MNs. Briefly: In vitro extracellular recordings and evaluation of reciprocal inhibition after neonatal spinal cord transection. On the set-up: species or system rat. The source says:
Rats were deeply anesthetized by hypothermia at birth. A dorsal midline skin incision was made over the thoracic vertebra and the overlying fascia and muscles were retracted to expose the dorsal surface of the vertebrae. After a partial laminectomy, the spinal cord was completely transected at the T8 thoracic level with scissors. The lesion cavity was then filled with sterile absorbable local hemostat Surgicoll (Medical Biomaterial Products; Neustadt-Glewe, Germany). The skin incision was closed with sutures (PDSII 6.0, Ethicon; Johnson and Johnson; Brussels, Belgium) and covered by Steri-Strips (3M Health Care; St. Paul, Minn.). The whole surgical procedure took less tan 10 min after anesthesia. Sham-operated rats were treated in the same way except […] the spinal cord transection. Following surgery, the neonates recovered 45 min in a warm environment maintaining the temperature at 35±1° C. Wounds were then cleaned and rats were kept in a warm environment for 40 min before returning to the nest.
Spinal cords isolated from neonatal rats were prepared as described in section 1.2 until “recording”.
Extracellular electrophysiological signals of lumbar VRs and DRs responses were recorded by contact stainless steel electrodes insulated from the bath with vaseline. […]

The next assay has as its system KCC2. Briefly: FluxOR fluorescence based thallium (Tl+) influx assay on KCC2-expressing HEK293 cells. In kind it is cell-based. The note with it: HEK KCC2 compared to WT HEK cells, non-cytotoxic dose range. Here is the method:
Wild-type or KCC2-expressing Human Embryonic Kidney (HEK) 293 cells (provided by Prof. Eric Delpire Department of Anesthesiology, Vanderbilt University Medical Center, Nashville, Tenn.) were grown up to 80-90% confluence in DMEM/Ham's F-12 (1:1) (Life technologies, Carlsbad, Calif., USA) supplemented with 10% FBS (Life technologies), 50 units/mL penicillin, and 50 µg/mL streptomycin (Life technologies). KCC2-expressing clones were under puromycin selection (20 μg/ml, Life technologies).
The FluxOR™ potassium ion channel assay (Life Technologies Carlsbad, Calif., USA) was performed as outlined in the product information sheet and an earlier published study (Delpire et al., 2009, Proc. Natl. Acad. Sci. USA, 106, 5383-88) to assess KCC2 activity, and adapted to semi-automated high throughput screening. The experiment was performed in the presence of ouabain 200 μM and bumetanide 10 μM in all buffers to block the Na^+/K^+ pump and NKCC1 cotransporters, respectively. Briefly, cells in suspension were incubated in the loading buffer containing the dye at room temperature for 90 min (1/2000 dilution of FluxOR reagent) at the density of 100.000 cells/75 μl, then centrifugated and resuspended in Assay buffer at the same cell density. A number of 100.000 cells (75 μl) were manually handled in each well to the 96-wells black-walled, μclear-bottom plates (Greiner Bio-One, Monroe, N.C., USA) and 5 μl of chemical compounds 1-8 at different concentrations in PBS 1% DMSO (5, 30 and 50 μM) were added to the plates using the Biomek® NX Laboratory automation workstation (Beckman Coulter, Villepinte, France). After 15 minutes incubation, baseline fluorescent signal was measured with the Polarstar omega microplate reader (490 nm excitation and 520 nm emission, BMG Labtech). Then 20 μL per well of 5× thallium stimulus buffer (final concentrations: Tl^+: 2 mM, K^+: 10 mM) was injected and fluorescent signal was read 30 minutes later.
For each plate, 2 columns were dedicated to controls (cell density range from 0.25 to 1.10^5 cells; loading buffer as blank; untreated or treated with NEM (33 μM, for 15 min) wild-type and KCC2-expressing HEK293 cells).
Baseline fluorescent value was subtracted from the fluorescent value measured 30 min after stimulus buffer injection for each well, and this difference was normalized to the number of cells. […] Values converted to percentages such that the maximum of ratio is 100%.

For the compound `CN1CCN(CCCN2c3ccccc3Sc3ccc(Cl)cc32)CC1` [compound 2, 2-chloro-10-[3-(4-methyl-1-piperazinyl)propyl]-10H-phenothiazine], the “strength of reciprocal inhibition relative to intact spinal cord” value in assay [1] (200 μM (so in the source), n=6) is “inhibition comparable to an intact spinal cord”. Besides, the “strength of reciprocal inhibition” value in assay [1] (5, 10 and 20 μM, 20 min after onset of application, P5-7 rats transected at birth) is “increased the strength of reciprocal inhibition in a dose-dependent manner”. The “specific activation of KCC2 across a dose range” value in the assay on KCC2 is reported as “activate specifically KCC2 in a dose dependant manner”.
